Patent publication US20120149694A1, “Substituted piperidines” (BAYER PHARMA AKTIENGESELLSCHAFT, priority 2009, published 2012)

Molecular target: T1, human protease activated receptor 1 (PAR-1) (Homo sapiens, UniProt P25116)
T1 construct: the cell stably expresses the endogenous human PAR-1 receptor; endogenous in cells; host or cells: HEK293-derived recombinant cell line expressing mitochondrial aequorin
T1 sequence (P25116 22-425): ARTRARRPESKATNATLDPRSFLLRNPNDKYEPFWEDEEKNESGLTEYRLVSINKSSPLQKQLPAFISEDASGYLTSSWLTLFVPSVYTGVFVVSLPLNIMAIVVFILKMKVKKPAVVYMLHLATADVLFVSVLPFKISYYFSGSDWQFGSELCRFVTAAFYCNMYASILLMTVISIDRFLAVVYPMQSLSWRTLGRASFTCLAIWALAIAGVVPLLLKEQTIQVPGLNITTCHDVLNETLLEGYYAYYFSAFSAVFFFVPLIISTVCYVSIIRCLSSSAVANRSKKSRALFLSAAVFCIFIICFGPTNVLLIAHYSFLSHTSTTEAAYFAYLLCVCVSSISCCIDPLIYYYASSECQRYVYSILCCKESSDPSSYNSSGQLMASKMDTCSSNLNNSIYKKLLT
Assay: Cellular functional in vitro test (PAR-1 antagonism, aequorin luminescence calcium readout)
Format: cell-based
Conditions: recombinant HEK293-derived aequorin cell line with endogenous PAR-1; PAR-1 agonist added at its EC50, 5 min after test substance
Source text: A recombinant cell line is used to identify antagonists of the human protease activated receptor 1 (PAR-1) and to quantify the activity of the substances described herein. The cell is originally derived from a human embryonal kidney cell (HEK293; ATCC: American Type Culture Collection, Manassas, Va. 20108, USA). The test cell line constitutively expresses a modified form of the calcium-sensitive photoprotein aequorin which, after reconstitution with the cofactor coelenterazine, emits light when the free calcium concentration in the inner mitochondrial compartment is increased (Rizzuto R, Simpson A W, Brini M, Pozzan T.; Nature 1992, 358, 325-327). Additionally, the cell stably expresses the endogenous human PAR-1 receptor and the endogenous purinergic receptor P2Y2. The resulting PAR-1 test cell responds to stimulation of the endogenous PAR-1 or P2Y2 receptor with an intracellular release of calcium ions, which can be quantified through the resulting aequorin luminescence with a suitable luminometer (Milligan G, Marshall F, Rees S, Trends in Pharmacological Sciences 1996, 17, 235-237).
For the testing of the substance specificity, the effect thereof after activation of the endogenous PAR-1 receptor is compared with the effect after activation of the endogenous purinergic P2Y2 receptor which utilizes the same intracellular signal path.
Test procedure: The cells are plated out two days (48 h) before the test in culture medium (DMEM F12, supplemented with 10% FCS, 2 mM glutamine, 20 mM HEPES, 1.4 mM pyruvate, 0.1 mg/ml gentamycin, 0.15% Na bicarbonate; BioWhittaker Cat.# BE04-687Q; B-4800 Verviers, Belgium) in 384-well microtitre plates and kept in a cell incubator (96% atmospheric humidity, 5% v/v CO2, 37° C.). On the day of the test, the culture medium is replaced by a tyrode solution (in mM: 140 sodium chloride, 5 potassium chloride, 1 magnesium chloride, 2 calcium chloride, 20 glucose, 20 HEPES), which additionally contains the cofactor coelenterazine (25 μM) and glutathione (4 mM), and the microtitre plate is then incubated for a further 3-4 hours. The test substances are then pipetted onto the microtitre plate, and 5 minutes after the transfer of the test substances into the wells of the microtitre plate the plate is transferred into the luminometer, a PAR-1 agonist concentration which corresponds to EC50 is added and the resulting light signal is immediately measured in the luminometer. To distinguish an antagonist substance action from a toxic action, the endogenous purinergic receptor is immediately subsequently activated with agonist (ATP, final concentration 10 μM) and the resulting light signal is measured.

| SMILES | IC50 [nM] |
| --- | --- |
| CS(=O)(=O)NCC1CC(c2ccc(C(F)(F)F)cc2)CN(C(=O)N2CCOCC2)C1 (single isomer, unassigned) [Example 6, N-({1-(Morpholin-4-ylcarbonyl)-5-[4-(trifluoromethyl)phenyl]piperidin-3-yl}methyl)methanesulphonamide] | 8 |
| O=C(CC1CC(c2ccc(C(F)(F)F)cc2)CN(C(=O)N2CCOCC2)C1)Nc1ccccc1 (racemic) [Example 15, 2-{1-(Morpholin-4-ylcarbonyl)-5-[4-(trifluoromethyl)phenyl]piperidin-3-yl}-N-phenylacetamide] | 56 |
| O=C(N1CCOCC1)N1CC(CS(=O)(=O)C2CCCC2)CC(c2ccc(C(F)(F)F)cc2)C1 (racemic) [Example 48, {3-[(Cyclopentylsulphonyl)methyl]-5-[4-(trifluoromethyl)phenyl]piperidin-1-yl}(morpholin-4-yl)methanone] | 24 |
| CC(C)(C)C(=O)NCC1CC(c2ccc(C(F)(F)F)cc2)CN(C(=O)N2CCOCC2)C1 (racemic) [Example 1, 2,2-Dimethyl-N-({1-(morpholin-4-ylcarbonyl)-5-[4-(trifluoromethyl)phenyl]piperidin-3-yl}methyl)propaneamide] | 177 |
| O=C(N1CCOCC1)N1CC(CSc2cccc(F)c2)CC(c2ccc(C(F)(F)F)cc2)C1 (racemic) [Example 40, (3-{[(3-Fluorophenyl)sulphanyl]methyl}-5-[4-(trifluoromethyl)phenyl]piperidin-1-yl)(morpholin-4-yl)methanone] | 3 |
